{
  "source": "ChEMBL document CHEMBL4673369",
  "about": "“ent-Kaurane-Based Diterpenoids, Dimers, and Meroditerpenoids from Isodon xerophilus” (J Nat Prod, 2020)",
  "key": {"RAW264.7": {"system": "RAW264.7", "assay": "Inhibition of LPS-induced NO production in mouse RAW264.7 cells incubated for 18 hrs by Griess reagent based assay", "type": "functional, cell-based", "settings": "RAW264.7, 18 h"}, "Candida albicans": {"system": "Candida albicans", "assay": "Antifungal activity against fluconazole resistant Candida albicans kzs01 assessed as inhibition of growth at 100 uM after 24 hrs", "type": "functional, organism-based"}, "Staphylococcus aureus": {"system": "Staphylococcus aureus", "assay": "Antibacterial activity against Staphylococcus aureus assessed as inhibition of growth at 100 uM after 24 hrs", "type": "functional, organism-based"}, "[1]": {"assay": "Cytotoxicity against human multidrug-resistant A549/Taxol cells assessed as reduction in cell viability", "type": "functional, cell-based"}, "MCF7": {"system": "MCF7", "assay": "Cytotoxicity against human MCF7 cells assessed as reduction in cell viability", "type": "functional, cell-based"}, "SW480": {"system": "SW480", "assay": "Cytotoxicity against human SW480 cells assessed as reduction in cell viability", "type": "functional, cell-based"}, "A549": {"system": "A549", "assay": "Cytotoxicity against human A549 cells assessed as reduction in cell viability", "type": "functional, cell-based"}, "SMMC-7721": {"system": "SMMC-7721", "assay": "Cytotoxicity against human SMMC-7721 cells assessed as reduction in cell viability", "type": "functional, cell-based"}, "HL-60": {"system": "HL-60", "assay": "Cytotoxicity against human HL-60 cells assessed as reduction in cell viability", "type": "functional, cell-based"}},
  "note": "Calls of active or inactive are those of the source. No cut-off for these calls is given here.",
  "data": [
    {"smiles": "COC[C@H]1C(=O)[C@@]23[C@H]4OC5O[C@@]2(O)[C@@H](O)[C@@H]2C(C)(C)CCC[C@]52[C@@H]3[C@@H](OC(C)=O)C[C@@H]14", "values": [
      {"measurement": "IC50", "setting": "RAW264.7", "value": 29.4, "unit": "µM"},
      {"measurement": "inhibition", "setting": "Candida albicans", "value": "inactive"},
      {"measurement": "inhibition", "setting": "Staphylococcus aureus", "value": "inactive"},
      {"measurement": "IC50", "setting": "[1]", "value": "> 10", "unit": "µM"},
      {"measurement": "IC50", "setting": "MCF7", "value": "> 10", "unit": "µM"},
      {"measurement": "IC50", "setting": "SW480", "value": "> 10", "unit": "µM"},
      {"measurement": "IC50", "setting": "A549", "value": "> 10", "unit": "µM"},
      {"measurement": "IC50", "setting": "SMMC-7721", "value": "> 10", "unit": "µM"},
      {"measurement": "IC50", "setting": "HL-60", "value": "> 10", "unit": "µM"}
    ]},
    {"smiles": "CNC(=N)NCCC[C@H](N)C(=O)O", "note": "[TILARGININE ACETATE]", "values": [
      {"measurement": "IC50", "setting": "RAW264.7", "value": 47.2, "unit": "µM"}
    ]},
    {"smiles": "CC(=O)O[C@H]1C[C@@H]2[C@@H]3OC4O[C@@]5(O)[C@@H](O)[C@@H]6C(C)(C)CCC[C@]46[C@H]1[C@]35C(=O)[C@]21CCC2=C(O1)[C@@]13[C@H]4OC5O[C@@]1(O)[C@@H](O)[C@@H]1C(C)(C)CCC[C@]51[C@@H]3CC[C@@H]24", "values": [
      {"measurement": "inhibition", "setting": "Candida albicans", "value": "inactive"},
      {"measurement": "inhibition", "setting": "Staphylococcus aureus", "value": "inactive"},
      {"measurement": "IC50", "setting": "[1]", "value": "> 10", "unit": "µM"},
      {"measurement": "IC50", "setting": "MCF7", "value": "> 10", "unit": "µM"},
      {"measurement": "IC50", "setting": "SW480", "value": "> 10", "unit": "µM"},
      {"measurement": "IC50", "setting": "A549", "value": "> 10", "unit": "µM"},
      {"measurement": "IC50", "setting": "SMMC-7721", "value": "> 10", "unit": "µM"},
      {"measurement": "IC50", "setting": "HL-60", "value": "> 10", "unit": "µM"}
    ]},
    {"smiles": "CC(=O)O[C@H]1C[C@@H]2[C@@H]3OC4O[C@@]5(O)[C@@H](O)[C@@H]6C(C)(C)CCC[C@]46[C@H]1[C@]35C(=O)[C@]21CO1", "values": [
      {"measurement": "inhibition", "setting": "Candida albicans", "value": "inactive"},
      {"measurement": "inhibition", "setting": "Staphylococcus aureus", "value": "inactive"},
      {"measurement": "IC50", "setting": "[1]", "value": "> 10", "unit": "µM"},
      {"measurement": "IC50", "setting": "MCF7", "value": "> 10", "unit": "µM"},
      {"measurement": "IC50", "setting": "SW480", "value": "> 10", "unit": "µM"},
      {"measurement": "IC50", "setting": "A549", "value": "> 10", "unit": "µM"},
      {"measurement": "IC50", "setting": "SMMC-7721", "value": "> 10", "unit": "µM"},
      {"measurement": "IC50", "setting": "HL-60", "value": "> 10", "unit": "µM"}
    ]},
    {"smiles": "COC[C@@H]1C(=O)[C@]23[C@H](O)[C@H]1CC[C@H]2C12CCCC(C)(C)[C@H]1C(=O)[C@]3(O)[C@@H]2O", "values": [
      {"measurement": "inhibition", "setting": "Candida albicans", "value": "inactive"},
      {"measurement": "inhibition", "setting": "Staphylococcus aureus", "value": "inactive"},
      {"measurement": "IC50", "setting": "[1]", "value": "> 10", "unit": "µM"},
      {"measurement": "IC50", "setting": "MCF7", "value": "> 10", "unit": "µM"},
      {"measurement": "IC50", "setting": "SW480", "value": "> 10", "unit": "µM"},
      {"measurement": "IC50", "setting": "A549", "value": "> 10", "unit": "µM"},
      {"measurement": "IC50", "setting": "SMMC-7721", "value": "> 10", "unit": "µM"},
      {"measurement": "IC50", "setting": "HL-60", "value": "> 10", "unit": "µM"}
    ]},
    {"smiles": "COC[C@@H]1C(=O)[C@@]23[C@H]4OC5O[C@@]2(O)[C@@H](O)[C@@H]2C(C)(C)CCC[C@]52[C@@H]3[C@@H](OC(C)=O)C[C@@H]14", "values": [
      {"measurement": "inhibition", "setting": "Candida albicans", "value": "inactive"},
      {"measurement": "inhibition", "setting": "Staphylococcus aureus", "value": "inactive"},
      {"measurement": "IC50", "setting": "[1]", "value": "> 10", "unit": "µM"},
      {"measurement": "IC50", "setting": "MCF7", "value": "> 10", "unit": "µM"},
      {"measurement": "IC50", "setting": "SW480", "value": "> 10", "unit": "µM"},
      {"measurement": "IC50", "setting": "A549", "value": "> 10", "unit": "µM"},
      {"measurement": "IC50", "setting": "SMMC-7721", "value": "> 10", "unit": "µM"},
      {"measurement": "IC50", "setting": "HL-60", "value": "> 10", "unit": "µM"}
    ]},
    {"smiles": "COC(=O)CCCCCC/C=C(/C=O)C[C@H]1C(=O)[C@@]23[C@H]4OC5O[C@@]2(O)[C@@H](O)[C@@H]2C(C)(C)CCC[C@]52[C@@H]3[C@@H](OC(C)=O)C[C@@H]14", "values": [
      {"measurement": "inhibition", "setting": "Candida albicans", "value": "inactive"},
      {"measurement": "inhibition", "setting": "Staphylococcus aureus", "value": "inactive"},
      {"measurement": "IC50", "setting": "[1]", "value": "> 10", "unit": "µM"},
      {"measurement": "IC50", "setting": "MCF7", "value": "> 10", "unit": "µM"},
      {"measurement": "IC50", "setting": "SW480", "value": "> 10", "unit": "µM"},
      {"measurement": "IC50", "setting": "A549", "value": "> 10", "unit": "µM"},
      {"measurement": "IC50", "setting": "SMMC-7721", "value": "> 10", "unit": "µM"},
      {"measurement": "IC50", "setting": "HL-60", "value": "> 10", "unit": "µM"}
    ]},
    {"smiles": "COC[C@@]1(C[C@H]2C(=O)[C@@]34[C@H]5OC6O[C@@]3(O)[C@@H](O)[C@@H]3C(C)(C)CCC[C@]63[C@@H]4[C@@H](OC(C)=O)C[C@@H]25)C(=O)[C@]23[C@H](O)[C@@]4(O)OC5O[C@H]2[C@H]1C[C@H](OC(C)=O)[C@H]3[C@@]51CCCC(C)(C)[C@@H]41", "note": "(stereo partly drawn)", "values": [
      {"measurement": "IC50", "setting": "RAW264.7", "value": 42.2, "unit": "µM"},
      {"measurement": "inhibition", "setting": "Candida albicans", "value": "inactive"},
      {"measurement": "inhibition", "setting": "Staphylococcus aureus", "value": "inactive"},
      {"measurement": "IC50", "setting": "[1]", "value": "> 10", "unit": "µM"},
      {"measurement": "IC50", "setting": "MCF7", "value": "> 10", "unit": "µM"},
      {"measurement": "IC50", "setting": "SW480", "value": "> 10", "unit": "µM"},
      {"measurement": "IC50", "setting": "A549", "value": "> 10", "unit": "µM"},
      {"measurement": "IC50", "setting": "SMMC-7721", "value": "> 10", "unit": "µM"},
      {"measurement": "IC50", "setting": "HL-60", "value": "> 10", "unit": "µM"}
    ]},
    {"smiles": "COC[C@@]1(C[C@H]2C(=O)[C@@]34[C@H]5OC6O[C@@]3(O)[C@@H](O)[C@@H]3C(C)(C)CCC[C@]63[C@@H]4CC[C@@H]25)C(=O)[C@@]23[C@H]4OC5O[C@@]2(O)[C@@H](O)[C@@H]2C(C)(C)CCC[C@]52[C@@H]3[C@@H](OC(C)=O)C[C@H]41", "values": [
      {"measurement": "IC50", "setting": "RAW264.7", "value": 11.1, "unit": "µM"},
      {"measurement": "inhibition", "setting": "Candida albicans", "value": "inactive"},
      {"measurement": "inhibition", "setting": "Staphylococcus aureus", "value": "inactive"},
      {"measurement": "IC50", "setting": "[1]", "value": "> 10", "unit": "µM"},
      {"measurement": "IC50", "setting": "MCF7", "value": "> 10", "unit": "µM"},
      {"measurement": "IC50", "setting": "SW480", "value": "> 10", "unit": "µM"},
      {"measurement": "IC50", "setting": "A549", "value": "> 10", "unit": "µM"},
      {"measurement": "IC50", "setting": "SMMC-7721", "value": "> 10", "unit": "µM"},
      {"measurement": "IC50", "setting": "HL-60", "value": "> 10", "unit": "µM"}
    ]}
  ]
}
